Experiments:
[1] = biological target: Menin-MLL (Homo sapiens (Human), UniProt O00255); assay: Determination of binding constants (Ki) to Menin-MLL (HTRF); details: HTRF, 0.25 nM H-FL-Menin, 3.2 nM FITC-MLL-4-43, 24 hr incubation; for Ki: read-out: Menin-MLL Ki HTRF Assay: Ki
[2] = biological target: hERG (Homo sapiens (Human), UniProt Q12809); assay: Patch clamp assay (hERG tail currents, whole-cell); assay type: cell-based; details: hERG transfected HEK 293 cells; for hERG % Remaining 1 μM: 1 μM compound; for hERG % Remaining 3 μM: 3 μM compound; for hERG % Remaining 10 μM: 10 μM compound; for hERG % Remaining 30 μM: 30 μM compound; for hERG % Remaining 100 μM: 100 μM compound
hERG, sequence (Q12809 whole entry): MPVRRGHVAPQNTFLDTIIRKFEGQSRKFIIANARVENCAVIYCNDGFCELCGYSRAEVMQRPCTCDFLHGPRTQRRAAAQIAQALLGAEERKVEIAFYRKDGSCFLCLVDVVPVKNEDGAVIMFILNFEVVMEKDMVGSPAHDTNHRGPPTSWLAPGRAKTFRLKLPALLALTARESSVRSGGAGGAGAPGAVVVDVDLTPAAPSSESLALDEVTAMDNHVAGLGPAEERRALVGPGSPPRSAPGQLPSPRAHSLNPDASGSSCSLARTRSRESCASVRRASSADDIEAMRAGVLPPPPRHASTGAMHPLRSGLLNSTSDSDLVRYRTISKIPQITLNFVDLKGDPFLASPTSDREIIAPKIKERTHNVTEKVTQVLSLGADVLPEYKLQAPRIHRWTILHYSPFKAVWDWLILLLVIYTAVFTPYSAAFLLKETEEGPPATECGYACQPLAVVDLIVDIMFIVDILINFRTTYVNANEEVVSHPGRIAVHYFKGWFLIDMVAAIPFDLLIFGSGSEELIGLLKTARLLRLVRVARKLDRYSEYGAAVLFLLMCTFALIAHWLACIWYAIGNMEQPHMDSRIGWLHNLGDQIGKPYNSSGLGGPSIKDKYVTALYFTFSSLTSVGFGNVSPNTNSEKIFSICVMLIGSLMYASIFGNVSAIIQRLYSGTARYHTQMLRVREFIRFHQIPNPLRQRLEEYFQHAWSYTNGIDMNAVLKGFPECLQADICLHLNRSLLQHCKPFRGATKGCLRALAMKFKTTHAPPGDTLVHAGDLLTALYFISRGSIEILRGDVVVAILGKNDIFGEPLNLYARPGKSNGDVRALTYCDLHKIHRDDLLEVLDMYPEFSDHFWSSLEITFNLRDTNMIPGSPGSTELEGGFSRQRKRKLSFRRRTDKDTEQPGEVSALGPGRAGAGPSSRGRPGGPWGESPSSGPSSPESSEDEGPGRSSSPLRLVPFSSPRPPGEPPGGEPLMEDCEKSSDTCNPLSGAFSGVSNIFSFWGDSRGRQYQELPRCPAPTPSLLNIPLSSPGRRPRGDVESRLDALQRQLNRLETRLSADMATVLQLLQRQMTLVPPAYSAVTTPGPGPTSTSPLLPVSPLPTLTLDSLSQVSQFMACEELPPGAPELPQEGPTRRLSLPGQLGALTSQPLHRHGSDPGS

Menin-MLL, sequence (O00255 whole entry): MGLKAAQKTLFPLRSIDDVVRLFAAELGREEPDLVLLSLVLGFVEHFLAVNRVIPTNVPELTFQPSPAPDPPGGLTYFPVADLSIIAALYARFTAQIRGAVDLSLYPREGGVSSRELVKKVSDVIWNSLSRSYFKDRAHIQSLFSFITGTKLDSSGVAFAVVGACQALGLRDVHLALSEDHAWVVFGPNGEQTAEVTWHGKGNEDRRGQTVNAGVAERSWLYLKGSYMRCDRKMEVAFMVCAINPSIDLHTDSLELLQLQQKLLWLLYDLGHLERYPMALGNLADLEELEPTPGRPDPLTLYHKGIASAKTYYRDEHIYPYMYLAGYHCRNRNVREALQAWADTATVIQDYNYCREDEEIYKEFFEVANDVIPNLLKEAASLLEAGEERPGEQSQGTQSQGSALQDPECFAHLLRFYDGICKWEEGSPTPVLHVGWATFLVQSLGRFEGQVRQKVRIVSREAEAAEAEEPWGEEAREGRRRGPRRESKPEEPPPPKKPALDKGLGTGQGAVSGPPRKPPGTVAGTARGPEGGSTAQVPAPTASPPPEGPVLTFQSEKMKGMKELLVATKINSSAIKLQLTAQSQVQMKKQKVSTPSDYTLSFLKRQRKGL

## CC(C)N(C(=O)c1cc(F)ccc1Oc1cncnc1N1CC2(CCN(C[C@@H]3CC[C@@H](NS(C)(=O)=O)CO3)CC2)C1)C(C)C [Compound 12, 5-fluoro-N,N-diisopropyl-2-((4-(7-(((2S,5R)-5-(methylsulfonamido)tetrahydro-2H-pyran-2-yl)methyl)-2,7-diazaspiro[3.5]nonan-2-yl)pyrimidin-5-yl)oxy)benzamide]
[1]
  EC50: < 50 nM
  Ki: < 1 nM
[2]
  hERG % Remaining 1 μM: +++ (“+++” means ≥66%)
  hERG % Remaining 3 μM: +++ (“+++” means ≥66%)
  hERG % Remaining 10 μM: +++ (“+++” means ≥66%)
  hERG % Remaining 30 μM: +++ (“+++” means ≥66%)
  hERG % Remaining 100 μM: ++ (“++” means ≥33% and <66%)
  IC50: ≥ 50 µM

## CCS(=O)(=O)N[C@@H]1CC[C@@H](CN2CCC3(CC2)CN(c2ncncc2Oc2ccc(F)cc2C(=O)N(C(C)C)C(C)C)C3)OC1 [Compound 13, 2-((4-(7-(((2S,5R)-5-(ethylsulfonamido)tetrahydro-2H-pyran-2-yl)methyl)-2,7-diazaspiro[3.5]nonan-2-yl)pyrimidin-5-yl)oxy)-5-fluoro-N,N-diisopropylbenzamide]
[1]
  EC50: < 50 nM
  Ki: < 1 nM
[2]
  hERG % Remaining 1 μM: +++ (“+++” means ≥66%)
  hERG % Remaining 3 μM: +++ (“+++” means ≥66%)
  hERG % Remaining 10 μM: +++ (“+++” means ≥66%)
  hERG % Remaining 30 μM: ++ (“++” means ≥33% and <66%)
  hERG % Remaining 100 μM: ++ (“++” means ≥33% and <66%)
  IC50: ≥ 50 µM

## CC(C)N(C(=O)c1cc(F)ccc1Oc1cncnc1N1CC2(CCN(C[C@@H]3CC[C@@H](NS(=O)(=O)C(C)C)CO3)CC2)C1)C(C)C [Compound 14, 5-fluoro-N,N-diisopropyl-2-((4-(7-(((2S,5R)-5-((1-methylethyl)sulfonamido)tetrahydro-2H-pyran-2-yl)methyl)-2,7-diazaspiro[3.5]nonan-2-yl)pyrimidin-5-yl)oxy)benzamide]
[1]
  EC50: < 50 nM
  Ki: < 1 nM
[2]
  hERG % Remaining 3 μM: +++ (“+++” means ≥66%)
  hERG % Remaining 10 μM: +++ (“+++” means ≥66%)
  hERG % Remaining 30 μM: ++ (“++” means ≥33% and <66%)
  hERG % Remaining 100 μM: + (“+” means <33%)
  IC50: 25 to 50 µM

## CC(C)N(C(=O)c1cc(F)ccc1Oc1cncnc1N1CC2(CCN(C[C@@H]3CC[C@@H](NS(=O)(=O)C4CC4)CO3)CC2)C1)C(C)C [Compound 15, 2-((4-(7-(((2S,5R)-5-(cyclopropanesulfonamido)tetrahydro-2H-pyran-2-yl)methyl)-2,7-diazaspiro[3.5]nonan-2-yl)pyrimidin-5-yl)oxy)-5-fluoro-N,N-diisopropylbenzamide]
[1]
  EC50: < 50 nM
  Ki: < 1 nM
[2]
  hERG % Remaining 3 μM: +++ (“+++” means ≥66%)
  hERG % Remaining 10 μM: +++ (“+++” means ≥66%)
  hERG % Remaining 30 μM: ++ (“++” means ≥33% and <66%)
  hERG % Remaining 100 μM: + (“+” means <33%)
  IC50: 25 to 50 µM

## CC(C)N(C(=O)c1cc(F)ccc1Oc1cncnc1N1CC2(CCN(C[C@@H]3CC[C@@H](NS(=O)(=O)C4COC4)CO3)CC2)C1)C(C)C [Compound 16, 5-fluoro-N,N-diisopropyl-2-((4-(7-(((2S,5R)-5-(oxetane-3-sulfonamido)tetrahydro-2H-pyran-2-yl)methyl)-2,7-diazaspiro[3.5]nonan-2-yl)pyrimidin-5-yl)oxy)benzamide]
[1]
  EC50: < 50 nM
  Ki: < 1 nM
[2]
  hERG % Remaining 10 μM: +++ (“+++” means ≥66%)
  hERG % Remaining 30 μM: +++ (“+++” means ≥66%)

## CCS(=O)(=O)N[C@@H]1CC[C@@H](CN2CCC3(CC2)CN(c2ncncc2Oc2ccc(F)cc2C(=O)N(C(C)C)C2CC2)C3)OC1 [Compound 19, N-cyclopropyl-2-((4-(7-(((2S,5R)-5-(ethylsulfonamido)tetrahydro-2H-pyran-2-yl)methyl)-2,7-diazaspiro[3.5]nonan-2-yl)pyrimidin-5-yl)oxy)-5-fluoro-N-isopropylbenzamide]
[1]
  EC50: < 50 nM
  Ki: < 1 nM
[2]
  hERG % Remaining 10 μM: +++ (“+++” means ≥66%)
  hERG % Remaining 30 μM: ++ (“++” means ≥33% and <66%)

## CC(C)N(C(=O)c1cc(F)ccc1Oc1cncnc1N1CC2(CCN(C[C@@H]3CC[C@@H](NS(=O)(=O)C4CC4)CO3)CC2)C1)C1CC1 [Compound 21, 2-((4-(7-(((2S,5R)-5-(cyclopropanesulfonamido)tetrahydro-2H-pyran-2-yl)methyl)-2,7-diazaspiro[3.5]nonan-2-yl)pyrimidin-5-yl)oxy)-N-cyclopropyl-5-fluoro-N-isopropylbenzamide]
[1]
  EC50: < 50 nM
  Ki: < 1 nM
[2]
  hERG % Remaining 10 μM: ++ (“++” means ≥33% and <66%)
  hERG % Remaining 30 μM: + (“+” means <33%)

## CCS(=O)(=O)N[C@@H]1CC[C@@H](CN2CCC3(CC2)CN(c2ncncc2Oc2ccc(F)cc2C(=O)N(C(C)C)[C@H]2CCOC2)C3)OC1 [Compound 33, 2-((4-(7-(((2S,5R)-5-(ethylsulfonamido)tetrahydro-2H-pyran-2-yl)methyl)-2,7-diazaspiro[3.5]nonan-2-yl)pyrimidin-5-yl)oxy)-5-fluoro-N-isopropyl-N-((S)-tetrahydrofuran-3-yl)benzamide]
[1]
  EC50: < 50 nM
  Ki: < 1 nM
[2]
  hERG % Remaining 10 μM: +++ (“+++” means ≥66%)
  hERG % Remaining 30 μM: +++ (“+++” means ≥66%)

## CCS(=O)(=O)N[C@@H]1CC[C@@H](CN2CCC3(CC2)CN(c2ncncc2Oc2ccc(F)cc2C(=O)N(CC(F)F)C(C)C)C3)OC1 [Compound 34, N-(2,2-difluoroethyl)-2-((4-(7-(((2S,5R)-5-(ethylsulfonamido)tetrahydro-2H-pyran-2-yl)methyl)-2,7-diazaspiro[3.5]nonan-2-yl)pyrimidin-5-yl)oxy)-5-fluoro-N-isopropylbenzamide]
[1]
  EC50: < 50 nM
  Ki: < 1 nM
[2]
  hERG % Remaining 1 μM: +++ (“+++” means ≥66%)
  hERG % Remaining 3 μM: +++ (“+++” means ≥66%)
  hERG % Remaining 10 μM: +++ (“+++” means ≥66%)
  hERG % Remaining 30 μM: ++ (“++” means ≥33% and <66%)
  hERG % Remaining 100 μM: + (“+” means <33%)
  IC50: 25 to 50 µM

## CCN(C(=O)c1cc(F)ccc1Oc1cncnc1N1CC2(CCN(C[C@@H]3CC[C@@H](NC(=O)NCC(F)(F)F)CO3)CC2)C1)C(C)C [Compound 37, N-ethyl-5-fluoro-N-isopropyl-2-((4-(7-(((2S,5R)-5-(3-(2,2,2-trifluoroethyl)ureido)tetrahydro-2H-pyran-2-yl)methyl)-2,7-diazaspiro[3.5]nonan-2-yl)pyrimidin-5-yl)oxy)benzamide]
[1]
  EC50: < 50 nM
  Ki: < 1 nM
[2]
  hERG % Remaining 10 μM: + (“+” means <33%)
  hERG % Remaining 30 μM: + (“+” means <33%)

## CCS(=O)(=O)N[C@@H]1CC[C@@H](CN2CCC3(CC2)CN(c2ncncc2Oc2ccc(F)cc2C(=O)N(CCC#N)C(C)C)C3)OC1 [Compound 43, N-(2-cyanoethyl)-2-((4-(7-(((2S,5R)-5-(ethylsulfonamido)tetrahydro-2H-pyran-2-yl)methyl)-2,7-diazaspiro[3.5]nonan-2-yl)pyrimidin-5-yl)oxy)-5-fluoro-N-isopropylbenzamide]
[1]
  EC50: < 50 nM
  Ki: < 1 nM
[2]
  hERG % Remaining 10 μM: +++ (“+++” means ≥66%)
  hERG % Remaining 30 μM: ++ (“++” means ≥33% and <66%)

## CCS(=O)(=O)N[C@@H]1CC[C@@H](CN2CCC3(CC2)CN(c2ncncc2Oc2ccc(F)cc2C(=O)N(C(C)C)C2CC(F)(F)C2)C3)OC1 [Compound 44, N-(3,3-difluorocyclobutyl)-2-((4-(7-(((2S,5R)-5-(ethylsulfonamido)tetrahydro-2H-pyran-2-yl)methyl)-2,7-diazaspiro[3.5]nonan-2-yl)pyrimidin-5-yl)oxy)-5-fluoro-N-isopropylbenzamide]
[1]
  EC50: < 50 nM
  Ki: < 1 nM
[2]
  hERG % Remaining 10 μM: +++ (“+++” means ≥66%)
  hERG % Remaining 30 μM: ++ (“++” means ≥33% and <66%)

## CCN(C(=O)c1cc(F)ccc1Oc1cncnc1N1CC2(CCN(C[C@@H]3CC[C@@H](NS(=O)(=O)c4ccccc4)CO3)CC2)C1)C(C)C [Compound 45, N-ethyl-5-fluoro-N-isopropyl-2-((4-(7-(((2S,5R)-5-(phenylsulfonamido)tetrahydro-2H-pyran-2-yl)methyl)-2,7-diazaspiro[3.5]nonan-2-yl)pyrimidin-5-yl)oxy)benzamide]
[1]
  EC50: < 50 nM
  Ki: < 1 nM
[2]
  hERG % Remaining 10 μM: ++ (“++” means ≥33% and <66%)
  hERG % Remaining 30 μM: + (“+” means <33%)

## CC(C)N(CC(F)F)C(=O)c1cc(F)ccc1Oc1cncnc1N1CC2(CCN(C[C@@H]3CC[C@@H](NS(=O)(=O)C4CC4)CO3)CC2)C1 [Compound 47, 2-((4-(7-(((2S,5R)-5-(cyclopropanesulfonamido)tetrahydro-2H-pyran-2-yl)methyl)-2,7-diazaspiro[3.5]nonan-2-yl)pyrimidin-5-yl)oxy)-N-(2,2-difluoroethyl)-5-fluoro-N-isopropylbenzamide]
[1]
  EC50: < 50 nM
  Ki: < 1 nM
[2]
  hERG % Remaining 10 μM: +++ (“+++” means ≥66%)
  hERG % Remaining 30 μM: ++ (“++” means ≥33% and <66%)

## CCN(C(=O)c1cc(F)ccc1Oc1cncnc1N1CC2(CCN(C[C@@H]3CC[C@@H](NS(=O)(=O)N(C)C)CO3)CC2)C1)C(C)C [Compound 49, 2-((4-(7-(((2S,5R)-5-((N,N-dimethylsulfamoyl)amino)tetrahydro-2H-pyran-2-yl)methyl)-2,7-diazaspiro[3.5]nonan-2-yl)pyrimidin-5-yl)oxy)-N-ethyl-5-fluoro-N-isopropylbenzamide]
[1]
  EC50: < 50 nM
  Ki: < 1 nM
[2]
  hERG % Remaining 10 μM: +++ (“+++” means ≥66%)
  hERG % Remaining 30 μM: +++ (“+++” means ≥66%)
  IC50: ≥ 50 µM

Source: US11919901B2 (Syndax Pharmaceuticals, Inc., priority 2021, dated 2024)
